In US8716493B2, “Multicyclic compounds and the use thereof” (Cephalon, Inc., priority 2000, dated 2014):
pIC50: −log10 of the molar value. One block for each compound: values may come before it.

Experiments:
[1] = test system: mouse MCA occlusion (suture thread method); settings: mice; intracerebroventricular administration; two hour MCA occlusion; cited from earlier work
[2] = test system: suture occlusion model of focal ischemia; settings: rat; 10 mg/kg; cited from earlier work
[3] = target: T1, human VEGFR2 cytoplasmic domain (Homo sapiens, UniProt P35968); experiment: Measurement of VEGFR2 kinase enzymatic activity (time-resolved fluorescence, PLC-γ/GST substrate); type: biochemical; settings: Table 5
T1 construct: recombinant human baculovirus-expressed human VEGFR2 cytoplasmic domain; host or cells: baculovirus-expressed
Method: A 96-well FluoroNUNC MaxiSorp plate was coated with 100 μL/well of recombinant human PLC-γ/GST substrate solution at a concentration of 40 μg/mL in Tris-buffered saline (TBS). The VEGFR2 activity was assayed in a 100 μL assay mixture containing 50 mM HEPES (pH 7.4), 30 μM ATP, 10 mM MnCl2, 0.1% BSA, 2% DMSO, and 150 ng/mL recombinant human baculovirus-expressed human VEGFR2 cytoplasmic domain (prephosphorylated for 60 min at 4° C. in the presence of 30 μM ATP and 10 mM MnCl2 prior to use). The kinase reaction was allowed to proceed at 37° C. for 15 min. The europium-labeled anti-phosphotyrosine detection antibody was added at 1:5000 dilution in block buffer (3% BSA in TBST). After 1 hour of incubation at 37° C., 100 μL of enhancement solution (Wallac #1244-105) was added and the plate was gently agitated. After 5 min, the time-resolved fluorescence of the resulting solution was measured using the BMG PolarStar (Model #403) using excitation and emission wavelengths of 340 nm and 615 nm, respectively, a collection delay of 400 μsec and an integration time of 400 μsec.
(§1) Single-point inhibition data were calculated by comparing PARP, VEGFR2, or MLK3 activity in the presence of inhibitor to activity in the presence of DMSO only. Inhibition curves for compounds were generated by plotting percent inhibition versus log10 of the concentration of compound. IC50 values were calculated by nonlinear regression using the sigmoidal dose-response (variable slope) equation in GraphPad Prism as follows: y=bottom+(top−bottom)/(1+10^(log IC50^−x)*Hillslope) where y is the % activity at a given concentration of compound, x is the logarithm of the concentration of compound, bottom is the % inhibition at the lowest compound concentration tested, and top is the % inhibition at the highest compound concentration examined. The values for bottom and top were fixed at 0 and 100, respectively. IC50 values were reported as the average of at least three separate determinations.
The following Examples 5 to 10 present PARP, VEGFR2, and MLK3 inhibiting data for compounds of the present invention. […] For some compounds, inhibiting data is presented as percent inhibition at a specified concentration. Compounds are tabulated together with compound number, substituents, and enzyme inhibition data.

MLK3 = target: T2, MLK3 (Homo sapiens, UniProt Q16584); experiment: Measurement of MLK3 enzymatic activity (32P phosphorylation of myelin basic protein); type: biochemical; settings: percent inhibition at 1 μM; Table 5
T2 construct: 2 μg/mL of baculoviral human GST-MLK1 kinase domain; GST (N); host or cells: baculovirus expression
Method: The activity assay for MLK3 was performed in Millipore Multiscreen plates. Each 50 μL assay mixture contained 50 mM HEPES (pH 7.0), 1 mM EGTA, 10 mM MgCl2, 1 mM DTT, 25 mM β-glycerophosphate, 100 μM ATP, 1 μCi [γ-^32P]ATP, 0.1% BSA, 500 μg/mL myelin basic protein, 2% DMSO, various concentrations of test compounds, and 2 μg/mL of baculoviral human GST-MLK1 kinase domain. Samples were incubated for 15 min at 37° C. The reaction was stopped by adding ice-cold 50% TCA and the proteins were allowed to precipitate for 30 min at 4° C.
as §1
For some compounds, inhibiting data is presented as percent inhibition at a specified concentration. Compounds are tabulated together with compound number, substituents, and enzyme inhibition data.

[4] = test system: rat model of focal cerebral ischemia; settings: i.p. 10 mg/kg two hours prior to and two hours after initiation of ischemia; cited from earlier work

T2 sequence (Q16584 117-379 limits assumed): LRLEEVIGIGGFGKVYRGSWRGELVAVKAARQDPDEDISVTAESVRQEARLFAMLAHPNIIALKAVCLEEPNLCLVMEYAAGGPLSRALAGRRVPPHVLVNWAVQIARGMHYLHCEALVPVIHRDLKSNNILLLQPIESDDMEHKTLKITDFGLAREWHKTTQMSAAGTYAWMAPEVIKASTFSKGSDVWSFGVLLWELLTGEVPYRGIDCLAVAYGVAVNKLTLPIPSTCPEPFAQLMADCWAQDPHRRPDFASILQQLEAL
T1 sequence (P35968 786-1356 limits assumed): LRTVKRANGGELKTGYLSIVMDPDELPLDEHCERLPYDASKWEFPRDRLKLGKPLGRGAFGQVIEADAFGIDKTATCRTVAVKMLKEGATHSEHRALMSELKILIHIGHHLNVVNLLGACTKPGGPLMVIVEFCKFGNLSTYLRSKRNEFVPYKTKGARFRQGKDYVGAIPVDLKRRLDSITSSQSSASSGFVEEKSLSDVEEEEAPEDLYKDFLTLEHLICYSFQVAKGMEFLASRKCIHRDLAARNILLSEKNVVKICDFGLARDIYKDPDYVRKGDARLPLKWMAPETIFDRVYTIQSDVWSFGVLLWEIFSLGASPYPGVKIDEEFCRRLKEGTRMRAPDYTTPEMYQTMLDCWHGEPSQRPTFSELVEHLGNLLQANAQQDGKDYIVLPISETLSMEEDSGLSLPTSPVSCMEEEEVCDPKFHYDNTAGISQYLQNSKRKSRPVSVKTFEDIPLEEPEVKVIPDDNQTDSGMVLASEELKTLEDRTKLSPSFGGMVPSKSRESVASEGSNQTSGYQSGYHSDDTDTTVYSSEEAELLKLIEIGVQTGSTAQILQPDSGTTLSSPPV

SMILES: NC(=O)c1cccc(N)c1 [Compound 3-AB, 3-aminobenzamide]
decrease in infarct volume [1]: 47% | infarct volume [2]: significantly reduced

SMILES: O=C1NC(=O)c2c1c1occc1c1[nH]c3ccccc3c21 [Compound 11g, 5,7-Dihydrofuran[a-3,2]pyrrolo[3,4-c]carbazole-5(6H), 7(11H)-dione]
VEGFR2 % @ 300 nM ([3]; percent inhibition at 300 nM): 8% | MLK3 % @ 1 μM (MLK3): 16%

pIC50 [3]: 6.63 | MLK3 % @ 1 μM (MLK3): 74%
SMILES: O=C1NC(=O)c2c1c1cnccc1c1[nH]c3ccccc3c21 [Compound 12a]

SMILES: O=C1NCCc2c(OCCCCN3CCCCC3)cccc21 [DPQ, 3,4-dihydro-5-[4-(1-piperidinyl)butoxy]-1(2H)-isoquinolinone]
reduction in infarct volume [4]: 54%
